Assay results as given in US8680159B2, “Bradykinin 1 receptor modulating compounds” (Gruenenthal GmbH, priority 2010, dated 2014).

How the values were obtained:
[1] = target: T1, human B1R receptor (CHO K1 cells stably transfected with the human B1R gene) (Homo sapiens, UniProt P46663); test: Functional study on the bradykinin receptor 1 (B1R), Ca2+ fluorescence (Fluo-4) FLIPR/Novostar assay, hB1R cells; type: cell-based; conditions: CHO-K1, read-out: % inhibition (human B1R) at 10 μM
T1 construct: expressed in transfected cells; host or cells: CHO K1 cells (Chinese hamster ovary), stably transfected
T1 sequence (P46663 1-353): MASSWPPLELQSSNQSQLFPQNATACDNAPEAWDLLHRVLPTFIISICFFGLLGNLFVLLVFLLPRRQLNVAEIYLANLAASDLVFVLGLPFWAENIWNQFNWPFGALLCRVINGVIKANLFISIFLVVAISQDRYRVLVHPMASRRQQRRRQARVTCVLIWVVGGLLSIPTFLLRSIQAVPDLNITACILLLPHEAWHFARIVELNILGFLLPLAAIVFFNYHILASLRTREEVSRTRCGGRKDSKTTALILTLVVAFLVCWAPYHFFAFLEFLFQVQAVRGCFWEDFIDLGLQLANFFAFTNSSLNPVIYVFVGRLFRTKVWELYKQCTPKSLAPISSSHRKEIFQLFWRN
Outline: (§1)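 Stably transfected CHO K1 cells carrying human or rat B1R were Fluo-4 loaded and Ca2+ fluorescence read by FLIPR or Novostar. Compounds were added first at 10 μM for % activation, then the EC80 agonist was applied after 6-20 min (human: Lys-Des-Arg9-bradykinin; rat: Des-Arg9-bradykinin). % inhibition is relative to maximum achievable inhibition, and IC50 comes from concentration series.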

[2] = target: T2, B1R receptor of the rat (CHO K1 cells stably transfected with the B1R gene of the rat) (Rattus norvegicus, UniProt P97583); test: Functional study on the bradykinin receptor 1 (B1R), Ca2+ fluorescence (Fluo-4) FLIPR/Novostar assay, rB1R cells; type: cell-based; conditions: CHO-K1, 10 μM, read-out: % inhibition (rat B1R) at 10 μM
T2 construct: expressed in transfected cells; host or cells: CHO K1 cells (Chinese hamster ovary), stably transfected
T2 sequence (P97583 1-337): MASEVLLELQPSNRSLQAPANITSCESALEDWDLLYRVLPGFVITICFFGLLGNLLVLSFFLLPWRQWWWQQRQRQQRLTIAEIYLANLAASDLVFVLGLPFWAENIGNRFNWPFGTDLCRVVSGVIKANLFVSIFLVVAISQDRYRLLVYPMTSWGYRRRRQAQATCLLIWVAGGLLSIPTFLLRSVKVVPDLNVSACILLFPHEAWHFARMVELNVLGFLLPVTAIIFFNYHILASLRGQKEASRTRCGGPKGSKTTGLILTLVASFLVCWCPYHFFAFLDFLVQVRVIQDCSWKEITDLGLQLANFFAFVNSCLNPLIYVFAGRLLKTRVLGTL
Outline: as §1

SMILES: CN(C(=O)c1ccc2c(c1)[C@H](NC(=O)c1cccc(F)c1Cl)CC2)C1CCN(c2ccncn2)CC1 [Example H-164, (3R)-3-[(2-Chloro-3-fluoro-benzoyl)amino]-N-methyl-N-(1-pyrimidin-4-yl-piperidin-4-yl)-2,3-dihydro-1H-indene-5-carboxylic acid amide]
- inhibition at 10 µM [1]: 100%
- inhibition at 10 µM [2]: 105%

SMILES: Cc1cc(N2CCC(N(C)C(=O)c3ccc4c(c3)[C@H](NC(=O)c3ccc(F)cc3Cl)CC4)CC2)nc(C)n1 [Example H-165, (3R)-3-[(2-Chloro-4-fluoro-benzoyl)amino]-N-[1-(2,6-dimethyl-pyrimidin-4-yl)-piperidin-4-yl]-N-methyl-2,3-dihydro-1H-indene-5-carboxylic acid amide]
- inhibition at 10 µM [1]: 100%
- inhibition at 10 µM [2]: 105%

SMILES: Cc1cc(N2CCC(N(C)C(=O)c3ccc4c(c3)[C@H](N(C(=O)c3ccccc3Cl)C(C)C)CC4)CC2)nc(C(C)C)n1 [Example H-166, (3R)-3-[(2-Chloro-benzoyl)-isopropyl-amino]-N-[1-(2-isopropyl-6-methyl-pyrimidin-4-yl)-piperidin-4-yl]-N-methyl-2,3-dihydro-1H-indene-5-carboxylic acid amide]
- inhibition at 10 µM [1]: 100%
- inhibition at 10 µM [2]: 55%

SMILES: CCN(C(=O)c1ccc(F)cc1Cl)[C@@H]1CCc2ccc(C(=O)N(C)C3CCN(c4cc(C)nc(C)n4)CC3)cc21 [Example H-167, (3R)-3-[(2-Chloro-4-fluoro-benzoyl)-ethyl-amino]-N-[1-(2,6-dimethyl-pyrimidin-4-yl)-piperidin-4-yl]-N-methyl-2,3-dihydro-1H-indene-5-carboxylic acid amide]
- inhibition at 10 µM [1]: 100%
- inhibition at 10 µM [2]: 109%

SMILES: Cc1cc(N2CCC(N(C)C(=O)c3ccc4c(c3)[C@H](N(C)C(=O)c3ccc(F)cc3Cl)CC4)CC2)nc(C)n1 [Example H-168, (3R)-3-[(2-Chloro-4-fluoro-benzoyl)-methyl-amino]-N-[1-(2,6-dimethyl-pyrimidin-4-yl)-piperidin-4-yl]-N-methyl-2,3-dihydro-1H-indene-5-carboxylic acid amide]
- inhibition at 10 µM [1]: 100%
- inhibition at 10 µM [2]: 104%

SMILES: Cc1cc(N2CCC(N(C)C(=O)c3ccc4c(c3)[C@H](N(C)C(=O)c3ccccc3C)CC4)CC2)nc(C)n1 [Example H-169, (3R)-N-[1-(2,6-Dimethyl-pyrimidin-4-yl)-piperidin-4-yl]-N-methyl-3-[methyl-(2-methyl-benzoyl)-amino]-2,3-dihydro-1H-indene-5-carboxylic acid amide]
- inhibition at 10 µM [1]: 100%
- inhibition at 10 µM [2]: 106%

SMILES: CCN(C(=O)c1ccccc1C)[C@@H]1CCc2ccc(C(=O)N(C)C3CCN(c4cc(C)nc(C)n4)CC3)cc21 [Example H-170, (3R)-N-[1-(2,6-Dimethyl-pyrimidin-4-yl)-piperidin-4-yl]-3-[ethyl-(2-methyl-benzoyl)-amino]-N-methyl-2,3-dihydro-1H-indene-5-carboxylic acid amide]
- inhibition at 10 µM [1]: 100%
- inhibition at 10 µM [2]: 106%

SMILES: Cc1cc(N2CCC(N(C)C(=O)c3ccc4c(c3)[C@H](N(C)C(=O)c3cccnc3C(F)(F)F)CC4)CC2)nc(C)n1 [Example H-171, N-[(1R)-6-[[1-(2,6-Dimethyl-pyrimidin-4-yl)-piperidin-4-yl]-methyl-carbamoyl]-2,3-dihydro-1H-inden-1-yl]-N-methyl-2-(trifluoromethyl)pyridine-3-carboxylic acid amide]
- inhibition at 10 µM [1]: 100%
- inhibition at 10 µM [2]: 104%

SMILES: CC(C)N(C(=O)c1ccc2c(c1)[C@H](NC(=O)c1ccccc1Cl)CC2)C1CCN(c2ccncc2)CC1 [Example H-178, (3R)-3-[(2-Chloro-benzoyl)amino]-N-isopropyl-N-(1-pyridin-4-yl-piperidin-4-yl)-2,3-dihydro-1H-indene-5-carboxylic acid amide]
- inhibition at 10 µM [1]: 100%
- inhibition at 10 µM [2]: 101%

SMILES: Cc1cc(N2CCC(N(C)C(=O)c3ccc4c(c3)[C@H](NC(=O)C(C)(C)F)CC4)CC2)ccn1 [Example H-179, (3R)-3-[(2-Fluoro-2-methyl-propanoyl)amino]-N-methyl-N-[1-(2-methyl-pyridin-4-yl)-piperidin-4-yl]-2,3-dihydro-1H-indene-5-carboxylic acid amide]
- inhibition at 10 µM [1]: 94%
- inhibition at 10 µM [2]: 100%

SMILES: CN(C(=O)c1ccc2c(c1)[C@H](NC(=O)c1ccccc1Cl)CC2)C1CCN(c2nccn2C)CC1 [Example H-180, (3R)-3-[(2-Chloro-benzoyl)amino]-N-methyl-N-[1-(1-methyl-1H-imidazol-2-yl)-piperidin-4-yl]-2,3-dihydro-1H-indene-5-carboxylic acid amide]
- inhibition at 10 µM [1]: 89%
- inhibition at 10 µM [2]: 104%

SMILES: Cc1cncc(N2CCC(N(C)C(=O)c3ccc4c(c3)[C@H](NC(=O)c3ccccc3Cl)CC4)CC2)n1 [Example H-181, (3R)-3-[(2-Chloro-benzoyl)amino]-N-methyl-N-[1-(6-methyl-pyrazin-2-yl)-piperidin-4-yl]-2,3-dihydro-1H-indene-5-carboxylic acid amide]
- inhibition at 10 µM [1]: 77%
- inhibition at 10 µM [2]: 100%

SMILES: CN(C(=O)c1ccc2c(c1)[C@H](NC(=O)c1ccccc1Cl)CC2)C1CCN(c2ccncc2)C(=O)C1 (stereo partly drawn) [Example H-182, (3R)-3-[(2-Chloro-benzoyl)amino]-N-methyl-N-(2-oxo-1-pyridin-4-yl-piperidin-4-yl)-2,3-dihydro-1H-indene-5-carboxylic acid amide]
- inhibition at 10 µM [1]: 15%
- inhibition at 10 µM [2]: 59%

SMILES: CN(C(=O)c1ccc2c(c1)[C@H](NC(=O)c1ccccc1Cl)CC2)C1CCN(c2ccncc2C(F)(F)F)CC1 [Example H-183, (3R)-3-[(2-Chloro-benzoyl)amino]-N-methyl-N-[1-[3-(trifluoromethyl)-pyridin-4-yl]-piperidin-4-yl]-2,3-dihydro-1H-indene-5-carboxylic acid amide]
- inhibition at 10 µM [1]: 93%
- inhibition at 10 µM [2]: 101%

SMILES: CN(C)c1cc(C2CCC(N(C)C(=O)c3ccc4c(c3)[C@H](NC(=O)c3ccccc3Cl)CC4)CC2)ccn1 (stereo partly drawn) [Example H-184, (3R)-3-[(2-Chloro-benzoyl)amino]-N-[4-(2-dimethylamino-pyridin-4-yl)-cyclohexyl]-N-methyl-2,3-dihydro-1H-indene-5-carboxylic acid amide]
- inhibition at 10 µM [1]: 72%
- inhibition at 10 µM [2]: 105%

SMILES: CN(C)c1cc(N2CCC(N(C)C(=O)c3ccc4c(c3)[C@H](N(C)C(=O)CCC3CCCC3)CC4)CC2)ccn1 [Example H-185, (3R)-3-(3-Cyclopentyl-propanoyl-methyl-amino)-N-[1-(2-dimethylamino-pyridin-4-yl)-piperidin-4-yl]-N-methyl-2,3-dihydro-1H-indene-5-carboxylic acid amide]
- inhibition at 10 µM [1]: 100%
- inhibition at 10 µM [2]: 105%

SMILES: CN(C)c1nccc(N2CCC(N(C)C(=O)c3ccc4c(c3)[C@H](N(C)C(=O)CCC3CCCC3)CC4)CC2)n1 [Example H-186, (3R)-3-(3-Cyclopentyl-propanoyl-methyl-amino)-N-[1-(2-dimethylamino-pyrimidin-4-yl)-piperidin-4-yl]-N-methyl-2,3-dihydro-1H-indene-5-carboxylic acid amide]
- inhibition at 10 µM [1]: 99%
- inhibition at 10 µM [2]: 103%
